From ChEMBL document CHEMBL1150960, “Isolation, structure determination, and biological activity of dolastatin 12 and lyngbyastatin 1 from Lyngbya majuscula/Schizothrix calcicola cyanobacterial assemblages” (J Nat Prod, 1998)
In brackets after ≈: the same amount, converted by molar mass. Activity calls are given as the source filed them. No cut-off for these calls is given here. *1 amine or outer side, *2 acyl side, *3 side chain or, on linkers, in order; H or OH if unused. Where a SMILES comes first, the peptide text is derived from it. [ ]: non-standard residue; d: D form. X2 = CC[C@H](C)[C@H](OC(=O)[C@@H](C)[C@@H](CC)N[*:1])C(=O)[*:2]; X1 = C[C@H](N[*:1])C(=O)C(C)(C)C(=O)[*:2]; NMeY = CN[C@@H](Cc1ccc(O)cc1)C(=O)O; NMeF = CN[C@@H](Cc1ccccc1)C(=O)O; NMeI = CC[C@H](C)[C@H](NC)C(=O)O; NMeL = CN[C@@H](CC(C)C)C(=O)O; NMeV = CN[C@H](C(=O)O)C(C)C; NMeA = CN[C@@H](C)C(=O)O

Columns and labels:
Mus musculus [1] = test: Toxicity in mouse Colon 38 cells xenografted BDF mouse assessed as body weight loss at nadir at 10.3 mg/kg, iv administered in QD 3-11 schedule; format: organism-based, MC-38; design: dose 10.3 mg/kg, route intravenous; settings: in vivo
A10 [2] = test: Effect on morphology in rat A10 cells assessed as formation of binuclear cells at 0.01 to 2 ug/ml; format: functional, cell-based
[3] = Cytotoxicity against human H116 cells assessed as zone units at 2 ug/disk by Corbett soft agar disk diffusion assay; format: functional
A10 [4] = test: Effect on morphology in rat A10 cells assessed as microtubule loss at 0.01 to 2 ug/ml after 24 hrs by […]; format: functional, cell-based
L1210 [5] = test: Cytotoxicity against mouse L1210 cells assessed as zone units at 2 ug/disk by Corbett soft agar disk diffusion assay; format: functional
A10 [6] = test: Inhibition of cytokinesis in rat A10 cells at 0.01 to 2 ug/ml; format: functional, cell-based
[7] = Cytotoxicity against mouse mammary 17/Adr cells assessed as zone units at 2 ug/disk by Corbett soft agar disk diffusion assay; format: functional
Mus musculus [8] = test: Toxicity in mouse mammary 16/C cells xenografted C3H mouse assessed as mortality at 6.4 mg/kg, iv administered in QD 1-8 schedule; format: organism-based; design: dose 6.4 mg/kg, route intravenous; settings: in vivo
Mus musculus [9] = test: Toxicity in mouse mammary 16/C cells xenografted C3H mouse assessed as mortality at 3.2 mg/kg, iv administered in d 1,2 schedule; format: organism-based; design: dose 3.2 mg/kg, route intravenous; settings: in vivo
LoVo = test: Cytotoxicity against human LoVo cells; format: functional
MC-38 [10] = test: Antitumor activity against mouse Colon 38 cells xenografted BDF mouse at 7.5 mg/kg, iv administered in QD 3-11 schedule; format: functional
Mus musculus [11] = test: Toxicity in mouse Colon 38 cells xenografted BDF mouse assessed as body weight loss at nadir at 7.5 mg/kg, iv administered in QD 3-11 schedule; format: organism-based, MC-38; design: dose 7.5 mg/kg, route intravenous; settings: in vivo
Mus musculus [12] = test: Toxicity in mouse mammary 16/C cells xenografted C3H mouse assessed as body weight loss at nadir at 3.2 mg/kg, iv administered in d 1,2 schedule; format: organism-based; design: dose 3.2 mg/kg, route intravenous; settings: in vivo
KB = test: Cytotoxicity against human KB cells; format: functional
[13] = Antitumor activity against mouse mammary 16/C cells xenografted C3H mouse at 3.2 mg/kg, iv administered in d 1,2 schedule; format: functional
A10 [14] = test: Induction of apoptosis in rat A10 cells assessed as apoptotic nuclei at 2 ug/ml; format: functional, cell-based
MC-38 [15] = test: Cytotoxicity against mouse Colon 38 cells assessed as zone units at 2 ug/disk by Corbett soft agar disk diffusion assay; format: functional
[16] = Antitumor activity against mouse mammary 16/C cells xenografted C3H mouse at 6.4 mg/kg, iv administered in QD 1-8 schedule; format: functional
[17] = Cytotoxicity against CFU-GM cells assessed as zone units at 2 ug/disk by Corbett soft agar disk diffusion assay; format: functional
Mus musculus [18] = test: Necrosis in iv dosed mouse assessed as inflamed, bloody, upper GI tract with pancreatic damage and hemorrhage in lungs; format: organism-based, Gastrointestinal tract; settings: in vivo
Mus musculus [19] = test: Toxicity in mouse mammary 16/C cells xenografted C3H mouse assessed as body weight loss at nadir at 6.4 mg/kg, iv administered in QD 1-8 schedule; format: organism-based; design: dose 6.4 mg/kg, route intravenous; settings: in vivo
MC-38 [20] = test: Antitumor activity against mouse Colon 38 cells xenografted BDF mouse at 10.3 mg/kg, iv administered in QD 3-11 schedule; format: functional
MC-38 [21] = test: Cytotoxicity against mouse Colon 38 cells assessed as zone units at 12 ug/disk by Corbett soft agar disk diffusion assay; format: functional
L1210 [22] = test: Cytotoxicity against mouse L1210 cells assessed as zone units at 12 ug/disk by Corbett soft agar disk diffusion assay; format: functional
[23] = Cytotoxicity against CFU-GM cells assessed as zone units at 12 ug/disk by Corbett soft agar disk diffusion assay; format: functional
[24] = Cytotoxicity against human H116 cells assessed as zone units at 12 ug/disk by Corbett soft agar disk diffusion assay; format: functional
Mus musculus [25] = test: Toxicity in mouse mammary 16/C cells xenografted C3H mouse assessed as mortality at 11.7 mg/kg, iv administered in QD 1-9 schedule; format: organism-based; design: dose 11.7 mg/kg, route intravenous; settings: in vivo
A10 [26] = test: Inhibition of cytokinesis in rat A10 cells; format: functional, cell-based
A10 [27] = test: Induction of apoptosis in rat A10 cells assessed as fragmented cell nuclei at 0.2 ug/ml; format: functional, cell-based
A10 [28] = test: Effect on morphology in rat A10 cells assessed as microtubule loss at 0.2 ug/ml after 24 hrs by […]; format: functional, cell-based
A10 [29] = test: Effect on morphology in rat A10 cells assessed as loss of cellular microfilament network at 0.2 ug/ml after 24 hrs by rhodamine-phalloidin staining; format: functional, cell-based
Mus musculus [30] = test: Antitumor activity against mouse mammary 16/C cells xenografted C3H mouse at 4.8 mg/kg, iv administered in d 1,2 schedule; format: functional, organism-based; design: dose 4.8 mg/kg
A10 [31] = test: Effect on morphology in rat A10 cells assessed as loss of cellular microfilament network at 2 ug/ml after 24 hrs by rhodamine-phalloidin staining; format: functional, cell-based
Mus musculus [32] = test: Toxicity in mouse Colon 38 cells xenografted BDF mouse assessed as mortality at 13 mg/kg, iv administered in QD 3-11 schedule; format: organism-based, MC-38; design: dose 13 mg/kg, route intravenous; settings: in vivo
MC-38 [33] = test: Antitumor activity against mouse Colon 38 cells xenografted BDF mouse at 15 mg/kg, iv administered in d 3,4,7-10 schedule; format: functional, organism-based; design: dose 15 mg/kg
Mus musculus [34] = test: Toxicity in mouse mammary 16/C cells xenografted C3H mouse assessed as body weight loss at nadir at 11.7 mg/kg, iv administered in QD 1-9 schedule; format: organism-based; design: dose 11.7 mg/kg, route intravenous; settings: in vivo
Mus musculus [35] = test: Toxicity in mouse mammary 16/C cells xenografted C3H mouse assessed as mortality at 4.8 mg/kg, iv administered in d 1,2 schedule; format: organism-based; design: dose 4.8 mg/kg, route intravenous; settings: in vivo
[36] = Antitumor activity against mouse mammary 16/C cells xenografted C3H mouse at 11.7 mg/kg, iv administered in QD 1-9 schedule; format: functional
A10 [37] = test: Effect on morphology in rat A10 cells assessed as microtubule loss at 2 ug/ml after 24 hrs by […]; format: functional, cell-based
A10 [38] = test: Effect on morphology in rat A10 cells assessed as formation of binuclear cells; format: functional, cell-based
MC-38 [39] = test: Antitumor activity against mouse Colon 38 cells xenografted BDF mouse at 13 mg/kg, iv administered in QD 3-11 schedule; format: functional
Mus musculus [40] = test: Toxicity in mouse mammary 16/C cells xenografted C3H mouse assessed as body weight loss at nadir at 4.8 mg/kg, iv administered in d 1,2 schedule; format: organism-based; design: dose 4.8 mg/kg, route intravenous; settings: in vivo
Mus musculus [41] = test: Toxicity in mouse Colon 38 cells xenografted BDF mouse assessed as body weight loss at nadir at 13 mg/kg, iv administered in QD 3-11 schedule; format: organism-based, MC-38; design: dose 13 mg/kg, route intravenous; settings: in vivo
Mus musculus [42] = test: Toxicity in mouse Colon 38 cells xenografted BDF mouse assessed as body weight loss at nadir at 15 mg/kg, iv administered in d 3,4,7-10 schedule; format: organism-based, MC-38; design: dose 15 mg/kg, route intravenous; settings: in vivo

CC[C@H](C)[C@@H]1OC(=O)[C@@H](C)[C@@H](CC)NC(=O)[C@H](C)N(C)C(=O)C(C)(C)C(=O)[C@H](C)NC(=O)[C@H](Cc2ccccc2)N(C)C(=O)[C@H](C(C)C)N(C)C(=O)CNC(=O)[C@H](CC(C)C)N(C)C(=O)CNC1=O [DOLASTATIN 12] (cyclo(G[NMeL]G[NMeV][NMeF][X1][NMeA][X2]))
Activity (Mus musculus [1]): -15%
Activity (A10 [2]): Active
Activity [3]: 480 Zone units
Activity (A10 [4]): inactive
Activity (L1210 [5]): 420 Zone units
Activity (A10 [6]): Active
Activity [7]: 270 Zone units
Activity (Mus musculus [8]): Non-toxic
Activity (Mus musculus [9]): Toxic
MIC (LoVo): 0.08 µg/mL (≈ 0.0825 µM)
T/C (MC-38 [10]): 92%
Activity (Mus musculus [11]): -8%
Activity (Mus musculus [12]): -13%
MIC (KB): < 0.05 µg/mL
T/C [13]: 68%
Activity (A10 [14]): Active
Activity (MC-38 [15]): 630 Zone units
T/C [16]: 86%
Activity [17]: 500 Zone units
Activity (Mus musculus [18]): Toxic
Activity (Mus musculus [19]): -3%
T/C (MC-38 [20]): 41%

CC[C@H](C)[C@@H]1OC(=O)[C@@H](C)[C@@H](CC)NC(=O)[C@H](C)NC(=O)C(C)(C)C(=O)[C@H](C)NC(=O)[C@H](Cc2ccc(OC)cc2)N(C)C(=O)[C@H](C(C)C)N(C)C(=O)CNC(=O)[C@H]([C@@H](C)CC)N(C)C(=O)CNC1=O [MAJUSCULAMIDE] (cyclo(A[X2]G[NMeI]G[NMeV][NMeY](Me)[X1]))
Activity (MC-38 [21]): 730 Zone units
Activity (L1210 [22]): 500 Zone units
Activity [23]: 450 Zone units
Activity [24]: 710 Zone units

CC[C@H](C)[C@@H]1OC(=O)[C@@H](C)[C@@H](CC)NC(=O)[C@H](C)N(C)C(=O)C(C)(C)C(=O)[C@H](C)NC(=O)[C@H](Cc2ccc(OC)cc2)N(C)C(=O)[C@H](C(C)C)N(C)C(=O)CNC(=O)[C@H](CC(C)C)N(C)C(=O)CNC1=O [epilyngbyastatin 1] (cyclo(G[NMeL]G[NMeV][NMeY](Me)[X1][NMeA][X2]))
Activity (Mus musculus [25]): Non-toxic
Activity (A10 [26]): inactive
Activity (A10 [27]): inactive
Activity (A10 [28]): inactive
Activity [3]: 580 Zone units
Activity (L1210 [5]): 450 Zone units
Activity (A10 [29]): Active
Activity (Mus musculus [30]): Toxic
Activity (A10 [31]): Active
Activity [7]: 650 Zone units
Activity (Mus musculus [32]): Non-toxic
Activity (MC-38 [33]): Toxic
Activity (Mus musculus [34]): -4%
Activity (Mus musculus [35]): Toxic
MIC (LoVo): 0.5 µg/mL (≈ 0.5 µM)
MIC (KB): 0.1 µg/mL (≈ 0.1 µM)
T/C [36]: 61%
Activity (A10 [14]): Active
Activity (MC-38 [15]): 670 Zone units
Activity [17]: 570 Zone units
Activity (A10 [37]): inactive
Activity (A10 [38]): inactive
Activity (Mus musculus [18]): Toxic
T/C (MC-38 [39]): 93%
Activity (Mus musculus [40]): Toxic
Activity (Mus musculus [41]): -3%
Activity (Mus musculus [42]): -8%
